According to patent US11866720B2, “Transgenic or non-transgenic plants with mutated protoporphyrinogen oxidase having increased tolerance to herbicides” (priority 2013, dated 2024):
Several values for one entry are separate records, joined by “and”; a condition that tells them apart may be missing. Identical values can stand only once. Like-named read-outs stand apart in the source and are kept apart here.

Legend:
[1] = system: transgenic soybean expressing mutated PPO; assay: Soybean segregating T1 individuals, greenhouse spray test (injury 0-9); type: in vivo, Glycine max; details: 1 week after treatment
[2] = system: transgenic Arabidopsis thaliana plants expressing wildtype or mutated PPO; assay: Germination / growth inhibition assay of transgenic Arabidopsis T2 seeds in 48-well plates; details: growth inhibition seven to ten days after seeding
[3] = system: transgenic soybean expressing mutated PPO; type: in vivo, Glycine max; details: T1 soybean, field, 3 days after treatment; for injury (1-5 point scale): benzoxazin 50 g ai/ha; as to injury (1-5 point scale): key: 1: no obvious damage (no phytotoxicity); 2: minor amount of leaf damage, plant will survive; 3: moderate amount of leaf damage, plant will survive; 4: severe amount of leaf damage, plant will survive; 5: no surviving plants - all plants dead/dying
[4] = transgenic Arabidopsis AMATU_PPO2_F420I
[5] = transgenic Arabidopsis AMATU_PPO2_F420L
[6] = transgenic Arabidopsis AMATU_PPO2_F420M
[7] = transgenic Arabidopsis AMATU_PPO2_R128A_F420I
[8] = transgenic Arabidopsis AMATU_PPO2_R128A_F420L
[9] = transgenic Arabidopsis AMATU_PPO2_R128A_F420M
[10] = transgenic Arabidopsis AMATU_PPO2_R128L
[11] = transgenic Arabidopsis AMATU_PPO2_dG210
[12] = transgenic Arabidopsis AMATU_PPO2_dG210_R128L
[13] = transgenic Arabidopsis AMATU_PPO2_wt

## CCOc1cc(Oc2ccc(C(F)(F)F)cc2Cl)ccc1[N+](=O)[O-] [Oxyfluorfen]
[1]; SDS10791 AmtuPPX2L R128A_F420I, Oxyfluorfen 600 g ai/ha
  injury (0-9 point scale): 4 (3×) and 8 and 5 (3×) and 3
[1]; SDS10791 AmtuPPX2L R128A_F420I, Oxyfluorfen 1200 g ai/ha
  injury (0-9 point scale): 9 (2×) and 4 (2×) and 5 (4×)
[1]; SDS-10642 AmtuPPX2L R128A_F420L, Oxyfluorfen 600 g ai/ha
  injury (0-9 point scale): 2 (3×) and 4 and 3 (3×) and 8
[1]; SDS-10648 AmtuPPX2L R128A_F420I, Oxyfluorfen 600 g ai/ha
  injury (0-9 point scale): 5 and 7 and 6 (2×) and 8 (2×) and 9 and 3
[1]; SDS-10648 AmtuPPX2L R128A_F420I, Oxyfluorfen 1200 g ai/ha
  injury (0-9 point scale): 5 (3×) and 9 (4×) and 4
[1]; SDS-10652 AmtuPPX2L L397D_F420V, Oxyfluorfen 600 g ai/ha
  injury (0-9 point scale): 4 (3×) and 5 and 6 (2×) and 9
[1]; SDS-10787 AmtuPPX2L R128A_F420L, Oxyfluorfen 600 g ai/ha
  injury (0-9 point scale): 6 (3×) and 5 (2×) and 8
[1]; SDS-10985 AmtuPPX2L R128A_F420M, Oxyfluorfen 600 g ai/ha
  injury (0-9 point scale): 1 and 3 (3×) and 4 (3×) and 9
[1]; SDS-10985 AmtuPPX2L R128A_F420M, Oxyfluorfen 1200 g ai/ha
  injury (0-9 point scale): 5 (3×) and 4 (3×) and 8 (2×)
[1]; SDS-10990 AmtuPPX2L R128A_F420M, Oxyfluorfen 600 g ai/ha
  injury (0-9 point scale): 4 (4×) and 8 and 3 and 9 and 5
[1]; SDS-10990 AmtuPPX2L R128A_F420M, Oxyfluorfen 1200 g ai/ha
  injury (0-9 point scale): 9 and 5 (5×) and 4 (2×)
[1]; SDS-11034 AmtuPPX2L R128A_F420V, Oxyfluorfen 600 g ai/ha
  injury (0-9 point scale): 4 (3×) and 9 and 5 (3×)
[1]; wild type, Oxyfluorfen 600 g ai/ha
  injury (0-9 point scale): 8 (3×) and 7 (3×) and 9 (2×)

## CS(=O)(=O)NC(=O)c1cc(Oc2ccc(C(F)(F)F)cc2Cl)ccc1[N+](=O)[O-] [Fomesafen, fomesafen]
[1]; SDS10791 AmtuPPX2L R128A_F420I, Fomesafen 600 g ai/ha
  injury (0-9 point scale): 6 and 3 (2×) and 1 (3×) and 4 and 2
[1]; SDS-10642 AmtuPPX2L R128A_F420L, Fomesafen 600 g ai/ha
  injury (0-9 point scale): 0 (4×) and 1 (4×)
[1]; SDS-10648 AmtuPPX2L R128A_F420I, Fomesafen 600 g ai/ha
  injury (0-9 point scale): 5 and 3 (6×) and 4
[1]; SDS-10652 AmtuPPX2L L397D_F420V, Fomesafen 600 g ai/ha
  injury (0-9 point scale): 1 (2×) and 2 (2×) and 0 (3×) and 4
[1]; SDS-10787 AmtuPPX2L R128A_F420L, Fomesafen 600 g ai/ha
  injury (0-9 point scale): 1 (2×) and 0 (2×) and 2 (2×) and 5 and 3
[1]; SDS-10985 AmtuPPX2L R128A_F420M, Fomesafen 600 g ai/ha
  injury (0-9 point scale): 3 (3×) and 0 (2×) and 1 (2×) and 5
[1]; SDS-10990 AmtuPPX2L R128A_F420M, Fomesafen 600 g ai/ha
  injury (0-9 point scale): 1 (2×) and 3 and 0 (2×) and 4 and 5 (2×)
[1]; SDS-11034 AmtuPPX2L R128A_F420V, Fomesafen 600 g ai/ha
  injury (0-9 point scale): 2 (2×) and 0 (3×) and 1 (3×)
[1]; wild type, Fomesafen 600 g ai/ha
  injury (0-9 point scale): 5 (4×) and 4 (4×)
[2]; [4]
  Relative tolerance rate as compared to a non-transgenic Arabidopsis plant (non-transgenic = 1.0): 18
[2]; [5]
  Relative tolerance rate as compared to a non-transgenic Arabidopsis plant (non-transgenic = 1.0): 23
[2]; [6]
  Relative tolerance rate as compared to a non-transgenic Arabidopsis plant (non-transgenic = 1.0): 29
[2]; [7]
  Relative tolerance rate as compared to a non-transgenic Arabidopsis plant (non-transgenic = 1.0): 29
[2]; [8]
  Relative tolerance rate as compared to a non-transgenic Arabidopsis plant (non-transgenic = 1.0): 29
[2]; [9]
  Relative tolerance rate as compared to a non-transgenic Arabidopsis plant (non-transgenic = 1.0): 29
[2]; [10]
  Relative tolerance rate as compared to a non-transgenic Arabidopsis plant (non-transgenic = 1.0): 27
[2]; [11]
  Relative tolerance rate as compared to a non-transgenic Arabidopsis plant (non-transgenic = 1.0): 29
[2]; [12]
  Relative tolerance rate as compared to a non-transgenic Arabidopsis plant (non-transgenic = 1.0): 29
[2]; [13]
  Relative tolerance rate as compared to a non-transgenic Arabidopsis plant (non-transgenic = 1.0): 19

## C1=Cc2ccccc2ON1 [benzoxazin]
[3]; SDS-10562 LTM377-1 AmtuPPX2L_dG210, benzoxazin (50 gai/ha)
  Injury rating (1-5 point scale): 3
[3]; SDS-10562 LTM377-1 AmtuPPX2L_dG210, benzoxazin (100 gai/ha)
  Injury rating (1-5 point scale): 3
[3]; SDS-10566 LTM377-1 AmtuPPX2L_dG210, benzoxazin (50 gai/ha)
  Injury rating (1-5 point scale): 3
[3]; SDS-10566 LTM377-1 AmtuPPX2L_dG210, benzoxazin (100 gai/ha)
  Injury rating (1-5 point scale): 3
[3]; SDS-10648 AmtuPPX2L R128A_F420I
  injury (1-5 point scale): 3
[3]; SDS-10656 LTM377-1 AmtuPPX2L_dG210, benzoxazin (50 gai/ha)
  Injury rating (1-5 point scale): 4
[3]; SDS-10656 LTM377-1 AmtuPPX2L_dG210, benzoxazin (100 gai/ha)
  Injury rating (1-5 point scale): 4
[3]; SDS-10791 AmtuPPX2L R128A_F420I
  injury (1-5 point scale): 2
[3]; SDS-10998 LTM387-1 AmtuPPX2L_R128A_F420V, benzoxazin (50 gai/ha)
  Injury rating (1-5 point scale): 2.5
[3]; SDS-10998 LTM387-1 AmtuPPX2L_R128A_F420V, benzoxazin (100 gai/ha)
  Injury rating (1-5 point scale): 2.5
[3]; SDS-11014 AmtuPPX2L R128A_F420I
  injury (1-5 point scale): 2
[3]; SDS-11034 AmtuPPX2L L397D_F420V
  injury (1-5 point scale): 2
[3]; SDS-11034 LTM387-1 AmtuPPX2L_R128A_F420V, benzoxazin (50 gai/ha)
  Injury rating (1-5 point scale): 2
[3]; SDS-11034 LTM387-1 AmtuPPX2L_R128A_F420V, benzoxazin (100 gai/ha)
  Injury rating (1-5 point scale): 2
[3]; SDS-11035 AmtuPPX2L R128A_F420V
  injury (1-5 point scale): 2
[3]; SDS-11035 LTM387-1 AmtuPPX2L_R128A_F420V, benzoxazin (50 gai/ha)
  Injury rating (1-5 point scale): 2
[3]; SDS-11035 LTM387-1 AmtuPPX2L_R128A_F420V, benzoxazin (100 gai/ha)
  Injury rating (1-5 point scale): 2
[3]; SDS-11052 AmtuPPX2L R128A_F420M
  injury (1-5 point scale): 3
[3]; SDS-11105 LTM387-1 AmtuPPX2L_R128A_F420V, benzoxazin (50 gai/ha)
  Injury rating (1-5 point scale): 3
[3]; SDS-11105 LTM387-1 AmtuPPX2L_R128A_F420V, benzoxazin (100 gai/ha)
  Injury rating (1-5 point scale): 3
[3]; SDS-11110 LTM387-1 AmtuPPX2L_R128A_F420V, benzoxazin (50 gai/ha)
  Injury rating (1-5 point scale): 3
[3]; SDS-11110 LTM387-1 AmtuPPX2L_R128A_F420V, benzoxazin (100 gai/ha)
  Injury rating (1-5 point scale): 3
[3]; Wildtype Jake, benzoxazin (50 gai/ha)
  Injury rating (1-5 point scale): 5
[3]; Wildtype Jake, benzoxazin (100 gai/ha)
  Injury rating (1-5 point scale): 5
[3]; wild type
  injury (1-5 point scale): 5

## CCOC(=O)C(C)OC(=O)c1cc(Oc2ccc(C(F)(F)F)cc2Cl)ccc1[N+](=O)[O-] (stereo not shown) [Lactofen, lactofen]
[2]; [4]
  Relative tolerance rate as compared to a non-transgenic Arabidopsis plant (non-transgenic = 1.0): 17
[2]; [5]
  Relative tolerance rate as compared to a non-transgenic Arabidopsis plant (non-transgenic = 1.0): 19
[2]; [6]
  Relative tolerance rate as compared to a non-transgenic Arabidopsis plant (non-transgenic = 1.0): 29
[2]; [7]
  Relative tolerance rate as compared to a non-transgenic Arabidopsis plant (non-transgenic = 1.0): 27
[2]; [8]
  Relative tolerance rate as compared to a non-transgenic Arabidopsis plant (non-transgenic = 1.0): 29
[2]; [9]
  Relative tolerance rate as compared to a non-transgenic Arabidopsis plant (non-transgenic = 1.0): 29
[2]; [10]
  Relative tolerance rate as compared to a non-transgenic Arabidopsis plant (non-transgenic = 1.0): 22
[2]; [11]
  Relative tolerance rate as compared to a non-transgenic Arabidopsis plant (non-transgenic = 1.0): 19
[2]; [12]
  Relative tolerance rate as compared to a non-transgenic Arabidopsis plant (non-transgenic = 1.0): 29
[2]; [13]
  Relative tolerance rate as compared to a non-transgenic Arabidopsis plant (non-transgenic = 1.0): 8

## C#CCN1C(=O)COc2cc(F)c(N3C(=O)C4=C(CCCC4)C3=O)cc21 [Flumioxazin, flumioxazin]
[1]; SDS10791 AmtuPPX2L R128A_F420I, Flumioxazin 150 g ai/ha
  injury (0-9 point scale): 3 (5×) and 1 (3×)
[1]; SDS-10642 AmtuPPX2L R128A_F420L, Flumioxazin 150 g ai/ha
  injury (0-9 point scale): 3 (3×) and 2 (2×) and 1 (2×) and 9
[1]; SDS-10648 AmtuPPX2L R128A_F420I, Flumioxazin 150 g ai/ha
  injury (0-9 point scale): 9 (5×) and 5 (3×)
[1]; SDS-10652 AmtuPPX2L L397D_F420V, Flumioxazin 150 g ai/ha
  injury (0-9 point scale): 9 and 6 (3×) and 5 (2×) and 4 (2×)
[1]; SDS-10787 AmtuPPX2L R128A_F420L, Flumioxazin 150 g ai/ha
  injury (0-9 point scale): 9 (2×) and 5 (4×) and 4 (2×)
[1]; SDS-10985 AmtuPPX2L R128A_F420M, Flumioxazin 150 g ai/ha
  injury (0-9 point scale): 9 (3×) and 6 (2×) and 4 (2×) and 5
[1]; SDS-10990 AmtuPPX2L R128A_F420M, Flumioxazin 150 g ai/ha
  injury (0-9 point scale): 6 (5×) and 5 (2×) and 9
[1]; SDS-11034 AmtuPPX2L R128A_F420V, Flumioxazin 150 g ai/ha
  injury (0-9 point scale): 5 (3×) and 4 and 6 (2×) and 9 and 3
[1]; wild type, Flumioxazin 150 g ai/ha
  injury (0-9 point scale): 9
